# According to article PMC3983056 (PLoS Pathogens, 2014):
# “And” between values parts separate entries of the source, which are not always exact repeats. Equal values may be shown once. Read-outs that look alike come from different tables or passages of the source.
# Legend:
# [1] = system: HIV expressing a luciferase reporter gene (NL4-3-Luc) in latently infected primary CD4 T cells; assay: microbe, parasite or virus in culture; type: cell-based; conditions: continuous 48 hours, cells from three healthy donors, mean ± SD
# Description: To assess clinically tested HDACi for their ability to activate HIV from latency, we first employed a previously described in vitro HIV latency model, [30] with several modifications to increase the sensitivity of detection. The assay involves freshly isolated naïve CD4 T cells from healthy donors polarized to a Th0 phenotype, which mimics memory CD4 T cells. These Th0 cells are then infected with HIV expressing a luciferase reporter gene and cultured for an additional 7 to 10 days until a latent infection is established.
# Total peripheral blood mononuclear cells (PBMCs) were obtained from healthy HIV-negative donors by leukapheresis (AllCells, Inc, Emeryville, CA). […] Purified naive CD4+ T cells were activated by incubation with anti-CD3/CD28 magnetic Dynabeads (1 bead: 2 cells ratio, Life Technologies), 1 µg/ml anti-IL-4 (R&D Systems, Minneapolis, MN), 2 µg/ml anti-IL-12p70 antibodies (R&D Systems), and 10 ng/ml TGF-β (R&D Systems) for 3 days, [59]. Following the removal of anti-CD3/CD28 beads and antibodies, cells were maintained in 30 U/ml IL-2 (Life Technologies) for 2 days. Cells were then infected with NL4.3-Luc in the presence of 50 µg/ml DEAE for 3 hours. Cells were maintained in the continued presence of 30 U/ml IL-2 throughout the infection and subsequent rest period with culture medium with fresh IL-2 replaced every 2–3 days. Seven days post-infection, 20 µl of latently infected cells were dispensed into 384 well plates using a MicroFlo dispenser (Biotek Insturments, VT) at 10,000 cells/well containing 100 nl of compound solutions delivered by the Echo acoustic-based liquid dispenser (Labcyte, Sunnyvale, CA). After a 48-hour incubation, 16 µl/well BriteGlo (Promega, Madison, WI) was added and luminescence measured using the Envision plate reader (Perkin Elmer, Waltham, MA). Compound-associated cytotoxicity was determined in latently infected cells in parallel with the virus activation assay. Cells were incubated with compounds for 48 hours at 37°C, and cell viability was determined using Cell Titer Glo reagent (Promega).
# [2] = Compound-associated cytotoxicity in latently infected cells (Cell Titer Glo); type: cell-based, human; conditions: human, latently infected (NL4.3-Luc) primary CD4+ T cells, continuous 48 hours, 50% cell viability reduction, three donors, mean ± SD
# Experimental: Total peripheral blood mononuclear cells (PBMCs) were obtained from healthy HIV-negative donors by leukapheresis (AllCells, Inc, Emeryville, CA). Naive CD4+ T cells were purified by negative selection using EasySep magnetic beads (StemCells, Inc, Vancouver, Canada) and cultured in RPMI with 10% fetal bovine serum (FBS), penicillin/streptomycin, 1% nonessential amino acids (Life Technologies, Carlsbad, CA), 1% sodium pyruvate (Life Technologies) and 495 nM beta-mercaptoethanol (Sigma Aldrich, St. Louis, MO) in a 37°C, 5% CO2 incubator. Purified naive CD4+ T cells were activated by incubation with anti-CD3/CD28 magnetic Dynabeads (1 bead: 2 cells ratio, Life Technologies), 1 µg/ml anti-IL-4 (R&D Systems, Minneapolis, MN), 2 µg/ml anti-IL-12p70 antibodies (R&D Systems), and 10 ng/ml TGF-β (R&D Systems) for 3 days, [59]. Following the removal of anti-CD3/CD28 beads and antibodies, cells were maintained in 30 U/ml IL-2 (Life Technologies) for 2 days. Cells were then infected with NL4.3-Luc in the presence of 50 µg/ml DEAE for 3 hours. Cells were maintained in the continued presence of 30 U/ml IL-2 throughout the infection and subsequent rest period with culture medium with fresh IL-2 replaced every 2–3 days. Seven days post-infection, 20 µl of latently infected cells were dispensed into 384 well plates using a MicroFlo dispenser (Biotek Insturments, VT) at 10,000 cells/well containing 100 nl of compound solutions delivered by the Echo acoustic-based liquid dispenser (Labcyte, Sunnyvale, CA). After a 48-hour incubation, 16 µl/well BriteGlo (Promega, Madison, WI) was added and luminescence measured using the Envision plate reader (Perkin Elmer, Waltham, MA). Compound-associated cytotoxicity was determined in latently infected cells in parallel with the virus activation assay. Cells were incubated with compounds for 48 hours at 37°C, and cell viability was determined using Cell Titer Glo reagent (Promega).
# [3] = system: memory CD4 cells from HIV-infected patients; assay: Viability of primary memory CD4 cells (Cell TiterGlo, 6 days); type: cell-based, human; conditions: same incubation period (6 days), data not shown
# Experimental: Cell viability was determined using a Cell TiterGlo reagent 6 days after the initiation of treatment and is expressed as a percentage of cell viability relative to control vehicle-treated memory CD4 cells from the same donors. The data represent mean +/− S.D. from three independent donors. (TIF) Click here for additional data file.
# [4] = system: latent HIV in memory CD4 T cells from HIV-infected patients on suppressive cART
# Description: We used HIV RNA in cell culture supernatants as a surrogate marker for virion release from treated cells. We assumed that extracellular virions would accumulate over the course of several days; therefore, the duration of culture was extended to 6 days to maximize assay sensitivity.
# (§3) HIV-infected patients participating in the study were selected based on sustained plasma viral load suppression (<50 copies/ml for >12 months), CD4 counts (>350 cells/µL), and absence of co-infection with hepatitis B or C virus (Supplementary Table S1). Clinical laboratory results were reconfirmed 2 weeks before leukapheresis or blood draw. Leukapheresis was conducted for 3–4 hours, and samples were processed within 2 hours after collection. The leukapheresis product was diluted 1∶1 with PBS and layered over Ficoll for isolation of PBMCs. […] Resting CD4 T cells were isolated by first enriching total CD4 T cells (StemCell Technologies) and subsequently depleting HLA-DR-, CD25-, and CD69-positive cells via negative selection (Miltenyi Biotec, Auburn, CA).
# (§4) To assess HIV activation by HDACi, up to 5 million CD4 T cells were plated in 24-well plates in 2.5 ml of media, supplemented with antiretrovirals (ARVs) (100 nM elvitegravir and 100–300 nM efavirenz) for the entire duration of culture incubation. HDACi were added at specified concentrations on day 0 and cells or culture supernatants were harvested for the analysis of HIV RNA at the indicated time points (6–48 hours or 6–7 days, respectively). For HDACi pulse treatment, cultures were washed twice using ARV-containing media at 4 or 24 hours after addition of HDACi and incubated with ARVs until harvest. To measure HIV RNA levels, 1 ml of culture supernatant was analyzed by a robotic COBAS AmpliPrep/TaqMan system (Roche Diagnostics, Indianapolis, IN), which extracts total nucleic acid and quantifies HIV RNA in copies per milliliter using the HIV-1 Test, v2.0 kit (Roche Diagnostics). For the measurement of cell-associated HIV RNA levels, cells were washed with PBS, counted, and lysed (Qiagen RLT buffer, 400 µl for every 2 million cells; Qiagen, Venlo, Netherlands). Lysates were filtered through a Qiashredder (Qiagen). Total RNA was prepared from the lysates (400 µl) using a robotic system (QIAsymphony, Qiagen) that incorporates a DNase I digestion step to eliminate cellular DNA. The resulting total RNA was eluted with 200 µl of buffer, diluted to 1 ml with nuclease-free water, and analyzed by COBAS using the HIV-1 Test v2.0 kit. Preparations of both cell-associated RNA and supernatant total nucleic acids were tested for potential contamination with HIV DNA and/or host DNA by performing the PCR amplification in the presence and absence of reverse transcriptase and by a detection of GAPDH-encoding host DNA sequence.
# (§5) HIV RNA-induction experiments were conducted using 5 to 6 replicates for every experimental condition, including vehicle-treated controls. Fold induction in HIV RNA levels was calculated as a ratio of mean signals from compound-treated and vehicle (DMSO)-treated control samples from the same donor under identical conditions. […] For experiments using blood-derived resting CD4 T cells, culture supernatants from 3 replicate wells were combined and analyzed using the COBAS system.
# [5] = system: latent HIV in memory CD4 T cells from HIV-infected patients on suppressive cART; assay: Ex vivo activation of HIV transcription, cell-associated HIV RNA, memory CD4 T cells; type: cell-based; conditions: memory CD4 T cells, 1 µM VOR
# Experimental: (§1) To examine the kinetics of HIV induction, we analyzed cell-associated viral RNA levels at 6, 12, 24, and 48 hours after treatment initiation.
# (§2) Lysates were filtered through a Qiashredder (Qiagen).
# [6] = system: latent HIV in resting CD4 T cells from HIV-infected patients on suppressive cART; type: cell-based; conditions: for persistence of intracellular HIV RNA induction: pulse RMD 4 hours, VOR 24 hours, PNB 24 hours, 6 to 48 hours; for HIV RNA avg: Figure 4, 25 nM PNB, one value per donor
# Experimental: as §1, §2
# [7] = system: latent HIV in resting CD4 T cells from HIV-infected patients on suppressive cART; assay: Ex vivo release of extracellular HIV RNA into culture supernatants, resting CD4 T cells; type: cell-based; conditions: resting CD4 T cells
# Experimental: as §3, §4, §5
# [8] = system: HIV gag-pol RNA from resting CD4 T cells of a cART-suppressed patient; assay: Single-genome sequencing of HIV RNA in culture supernatants; type: cell-based; conditions: 2 µM SAHA, day 7
# Description: In parallel, we assessed the sequence diversity of HIV proviruses integrated in genomic DNA of resting CD4 T cells from the same culture.
# Figure 8 Phylogenetic analysis of HIV sequences expressed ex vivo following the latency reversal. […] Single-genome sequencing was used to analyze patient HIV proviral DNA and plasma RNA at the initiation of treatment (day 0), together with the ex vivo induced HIV RNA in cell culture supernatants at the end of treatment (day 7). […] Identified HIV DNA and RNA sequences were aligned and the phylogenetic tree was constructed using Clustal W and MEAG5.
# Single-genome sequencing of a portion of HIV-1 gag-pro-pol amplified from cell culture supernatants or cellular DNA extracts was performed as previously described [34]–[36]. Sequences were aligned using ClustalW and neighbor-joining phylogenetic analysis was performed using MEGA5. Trees were rooted on the subtype B consensus sequence (www.hiv.lanl.gov).
# [9] = Cell culture medium protein binding by equilibrium dialysis, HPLC/mass spectrometry; type: in vitro ADME
# [10] = system: HIV; conditions: cited from earlier work
# [11] = system: latently infected cells expressing Bcl2; parameters: method as in PMID 22406268; conditions: in vitro latency model with ectopic Bcl2; cited from earlier work
# [12] = system: total class I and II HDAC enzyme activity in resting CD4 T cells; conditions: pulse RMD 4 hours, VOR 24 hours, PNB 24 hours, 6 to 48 hours
# Experimental: Resting CD4 T cells obtained from HIV-infected patients on suppressive cART were incubated with serial dilutions of HDACi in 96-well plates at 10,000 cells/well for indicated time and then lysed by repeated freezing and thawing. Total cellular HDAC activity was measured using the HDAC-Glo I/II assay kit (Promega) according to the manufacturer's protocol.
# [13] = Human immunodeficiency virus 1, NL43, CD4+ T, 48 h
structure (smiles),measurement,setting,value
"Nc1ccccc1NC(=O)c1ccc(CNc2nccc(-c3cccnc3)n2)cc1 [Mocetinostat, mocetinostat]",EC50,[1]; [13],13.6 µM
same,CC50 at 48 h,[2],10.1 µM
"CCCCc1nc2cc(/C=C/C(=O)NO)ccc2n1CCN(CC)CC [SB939, pracinostat]",EC50,[1]; [13],0.212 ± 0.014 µM
same,CC50 at 48 h,[2],> 50 µM
CN(CC[C@H](N)CC(=O)N[C@H]1C=C[C@H](n2ccc(N)nc2=O)O[C@@H]1C(=O)O)C(=N)N [blasticidine],cell death,[3],> 80%
same,release of HIV RNA into cell culture supernatants,"[4]; highly cytotoxic control, data not shown",did not lead to release of detectable levels of HIV RNA
"CCN(CC)Cc1ccc2cc(COC(=O)Nc3ccc(C(=O)NO)cc3)ccc2c1 [Givinostat, givinostat]",EC50,[1]; [13],0.0958 ± 0.0203 µM
same,CC50 at 48 h,[2],24 µM
"O=C(CCCCCCC(=O)Nc1ccccc1)NO [VOR, suberoylanilide hydroxamic acid]",CC50 at 48 h,[2],> 25 µM
same,cell-associated HIV RNA at 48 hours,[5],decreased by 48 hours to levels detected in vehicle-treated cells
same,cell-associated HIV RNA at 48 hours,"[6]; resting CD4 T cells, 1 µM VOR",decreased by 48 hours to levels detected in vehicle-treated cells
same,increase in intracellular HIV RNA levels versus vehicle,"[6]; resting CD4 T cells, 1 µM VOR, 24-hour treatment","rapid, but transient and less-pronounced activation"
same,persistence of intracellular HIV RNA induction,[6]; resting CD4 T cells,transient and diminished after 24 hours
same,extracellular HIV RNA versus untreated controls,[7]; 0.5 µM VOR continuous 6 days,did not increase extracellular HIV RNA significantly
same,patient-derived cultures with measurable increase of extracellular HIV RNA,[7]; 1 µM VOR continuous 6 days,3 of 7
same,sequences of HIV RNA recovered in culture supernatants,[8],No HIV RNA sequences were recovered
same,fraction unbound,[9],0.68
same,HIV RNA in culture supernatants,"[4]; memory CD4 T cells, 1 µM VOR continuous 6 days, two patients",no significant increase
same,extracellular HIV RNA in culture supernatants,"[4]; memory CD4 T cells, 0.5 and 1 µM VOR for 24 hours, day 6",lack of HIV RNA release
same,effect on total proviral DNA in peripheral CD4 T cells,[10]; multiple-dose (14-day) trial of VOR,no apparent effect
same,mean increase in cell-associated HIV RNA levels,"[10]; once-daily VOR for 14 consecutive days, 20 patients",~3 fold
same,mean increase in HIV RNA levels in resting CD4 T cells,"[10]; single 400 mg dose of VOR, 8 HIV-infected patients on cART",4.8 fold
same,increases in the level of plasma viremia,[10]; single-dose and 14-day VOR studies,not observed
same,cell death after HIV activation,[11],does not lead to cell death
"Cc1[nH]c2ccccc2c1CCNCc1ccc(/C=C/C(=O)NO)cc1 [PNB, panobinostat]",EC50,[1]; [13],0.01 µM
same,EC50,[1],0.0101 ± 0.001 µM
same,CC50 at 48 h,[2],> 2.5 µM
same,HIV RNA avg,[6]; 6 hours,4342 copies/mil cells and 2414 copies/mil cells
same,HIV RNA avg,[6]; 24 hours,11600 copies/mil cells and 5606 copies/mil cells
same,HIV RNA avg,[6]; 48 hours,1815 copies/mil cells and 783 copies/mil cells
same,persistence of intracellular HIV RNA induction,[6]; resting CD4 T cells,transient and diminished after 24 hours
same,persistence of inhibition of cell-associated HDAC activity,[12],transient and decreased after 24 hours of incubation
same,HIV transcription and viremia in peripheral blood,"[10]; multiple doses of PNB, HIV-positive patients on suppressive cART",induce intracellular HIV transcription and low-level viremia
